Patent US10189809B2, “SGC stimulators” (Ironwood Pharmaceuticals, Inc., priority 2010, dated 2019)
Where two headings read alike, the source gives them in different places.

What was measured:
[1] = target: soluble guanylate cyclase (sGC) (Homo sapiens (Human), UniProt Q02108+Q02153); assay: sGC-HEK-cGMP assay run with SNP incubation (HEK WC assay); assay type: cell-based
Procedure: Human embryonic kidney cells (HEK293), endogenously expressing soluble guanylate cyclase (sGC), were used to evaluate the activity of test compounds. Compounds stimulating the sGC receptor should cause an increase in the intracellular concentration of cGMP. HEK 293 cells were seeded in Dulbecco's Modification of Eagle's Medium supplemented with fetal bovine serum (10% final) and L-glutamine (2 mM final) in a 200 μL volume at a density of 1×10^5 cells/well in a poly-D-lysine coated 96 well flat bottom plate and grown overnight at 37° C. Medium was aspirated and cells were washed with 1× Hank's Buffered Saline Salt Solution (200 μL). Cells were then incubated for 15 minutes at 37° C. with 0.5 mM 3-isobutyl-1-methylxanthine (200 μL). Test article and sodium nitroprusside were then added to the assay mixture (2 μL each) and incubated at 37° C. for 10 minutes. After the 10 minute incubation, the assay mixture was aspirated and 0.1M HCl (200 μL) was added to the cells. The plate was incubated at 4° C. for 30 minutes in the 0.1M HCl to stop the reaction and lysed the cells. The plates were then centrifuged at 1,200 g for 5 minutes at room temperature. Supernatants were collected and transferred to a new flat bottom 96 well plate for analysis. Vehicle controls were carried out using DMSO (1%). […] Samples were diluted with an equal volume of 1 M Ammonium Acetate (pH 7) to neutralize samples for better chromatography. […] EC50 values were calculated from concentration-response curves generated with GraphPad Prism Software.

[2] = system: Thoracic aortic rings; assay: Alternative thoracic aortic rings assay (Example 19b; resting tension as 100% inhibition); design: species or system rat; conditions: Rattus norvegicus; for inhibition at 1 µM: read-out: Percent Relaxation at 1 μM; for inhibition at 3 µM: read-out: Percent Relaxation at 3 μM; for EC50: read-out: Aortic Ring EC50
Procedure: Thoracic aortic rings were dissected from anesthetized (isoflurane) male Sprague-Dawley rats weighing 275-299 g. Tissues were immediately transferred to ice-cold Krebs-Henseleit solution, which had been aerated with 95% O2 and 5% CO2 for 30 minutes. Following removal of connective tissue, aortic sections were cut into 4 rings (˜2 mm each) and suspended on 2 L-shaped hooks, with one hook fixed at the bottom of the tissue bath (Schuler Organ Bath, Harvard Apparatus) and the other connected to a force transducer (F30 Force Transducer, Harvard Apparatus). Baths contained Krebs Henseleit solution (10 mL) heated to 37° C. and aerated with 95% O2 and 5% CO2. Rings were brought to an initial tension of 0.3-0.5 g and gradually raised to a resting tension of 1.0 g over 60 minutes. Rings were rinsed with Krebs Henseleit solution (heated to 37° C. and aerated with 95% O2 and 5% CO2) at 15 minute intervals until a stable baseline was obtained. Rings were considered to be stable after a resting tension of 1.0 g was maintained (for approximately 10 minutes) without need for adjustment. Rings were then contracted with 100 ng/mL phenylephrine by adding 100 uL of a 10 μg/mL phenylephrine stock solution. Tissues achieving a stable contraction were then treated in a cumulative, dose dependent manner with test compounds prepared in dimethylsulfoxide (DMSO). In some cases, tissues were rinsed three times over a 5 minute period with Krebs-Heinseleit's solution (heated to 37° C. and aerated with 95% O2 and 5% CO2), allowed to stabilize at baseline, and then used for characterization of other test articles or DMSO effects. All data were collected using the HSE-ACAD software provided by Harvard Apparatus. […] EC50 values were calculated from concentration-response curves generated with GraphPad Prism Software.

[3] = target: Human soluble guanylate cyclase enzyme (hsGC) (Homo sapiens (Human), UniProt Q02108+Q02153); assay: Purified human sGC enzyme activity assay; assay type: biochemical; conditions: for sGC Enzyme (specific activity at 10 μM) / sGC Enzyme (fold increase at 10 μM without SNP) / sGC Enzyme (fold increase at 10 μM): 10 μM compound; for sGC Enzyme (specific activity at 30 μM) / sGC Enzyme (fold increase at 30 μM without SNP) / sGC Enzyme (fold increase at 30 μM): 30 μM compound; for sGC Enzyme (fold increase at 10 μM) / sGC Enzyme (fold increase at 30 μM): without the addition of SNP
Procedure: Human soluble guanylate cyclase enzyme (hsGC) obtained from Enzo Inc. (P/N: ALX-201-177) was used to evaluate the activity of test compounds. The assay reactions contained 0.1 M Tris (pH 8.0), 0.5 mg/mL BSA (pH 8.0), 2 mM DTT, 2 mM MgCl2, 300 μM GTP, 1 mM 3-isobutyl-1-methylxanthine (IBMX) and 5 ng human soluble guanylate cyclase enzyme. Test compounds in DMSO were then added (2 μL, 10 or 30 μM final concentration) and incubated (200 μL, 96-well plate format) at 37° C. for 30 minutes. The controls were carried out using 2 μL DMSO. After the 30 minute incubation, the reaction was stopped with the addition of 200 μL of cold methanol. The plate was then centrifuged at 3,200 rpm for 10 minutes at room temperature. Supernatants (200 μL) were collected and transferred to a new 96 well plate for analysis.
An 8 point cGMP (Sigma-Aldrich P/N: G6129) standard curve was prepared in assay buffer ranging from 0.156-20 μM. Samples for the cGMP standard curve were then diluted with an equal volume of methanol resulting in final cGMP concentrations of 0.078-10 μM.
The cGMP standard curve was generated using GraphPad Prism Software.
Calculations: Specific Activity was determined by the amount of cGMP formed (nmoles) per mg of sGC per min. Enzyme “fold-change” was calculated by dividing Specific Activity for test compounds by Specific Activity of DMSO controls.

[4] = read-out: HEK WC Assay (% Emax at 10 μM/with 10 uM SNP)
[5] = read-out: HEK WC Assay (% Emax at 30 μM/with 10 uM SNP)
[6] = read-out: HEK WC Assay (% Emax at 10 uM/with 10 uM SNP)
[7] = read-out: HEK WC Assay (% Emax at 30 uM/with 10 uM SNP)

soluble guanylate cyclase (sGC), sequence (Q02153 whole entry): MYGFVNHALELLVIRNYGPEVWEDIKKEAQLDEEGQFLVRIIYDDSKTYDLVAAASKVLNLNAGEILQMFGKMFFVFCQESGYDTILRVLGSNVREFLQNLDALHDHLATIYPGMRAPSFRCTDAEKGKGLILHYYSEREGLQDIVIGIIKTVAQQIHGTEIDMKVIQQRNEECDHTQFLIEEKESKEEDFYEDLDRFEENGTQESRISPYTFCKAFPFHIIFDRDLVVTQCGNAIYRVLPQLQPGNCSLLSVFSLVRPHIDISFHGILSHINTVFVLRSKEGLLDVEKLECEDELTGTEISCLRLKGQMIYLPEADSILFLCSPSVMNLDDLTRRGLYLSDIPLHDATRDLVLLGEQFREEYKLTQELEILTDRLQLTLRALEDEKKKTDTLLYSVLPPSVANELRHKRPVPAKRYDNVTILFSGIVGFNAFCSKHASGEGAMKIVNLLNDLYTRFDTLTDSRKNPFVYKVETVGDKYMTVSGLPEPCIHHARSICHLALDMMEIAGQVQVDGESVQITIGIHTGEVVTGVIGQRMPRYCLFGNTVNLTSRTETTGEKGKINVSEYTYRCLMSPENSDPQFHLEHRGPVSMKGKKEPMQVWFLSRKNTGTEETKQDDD
soluble guanylate cyclase (sGC), sequence (Q02108 whole entry): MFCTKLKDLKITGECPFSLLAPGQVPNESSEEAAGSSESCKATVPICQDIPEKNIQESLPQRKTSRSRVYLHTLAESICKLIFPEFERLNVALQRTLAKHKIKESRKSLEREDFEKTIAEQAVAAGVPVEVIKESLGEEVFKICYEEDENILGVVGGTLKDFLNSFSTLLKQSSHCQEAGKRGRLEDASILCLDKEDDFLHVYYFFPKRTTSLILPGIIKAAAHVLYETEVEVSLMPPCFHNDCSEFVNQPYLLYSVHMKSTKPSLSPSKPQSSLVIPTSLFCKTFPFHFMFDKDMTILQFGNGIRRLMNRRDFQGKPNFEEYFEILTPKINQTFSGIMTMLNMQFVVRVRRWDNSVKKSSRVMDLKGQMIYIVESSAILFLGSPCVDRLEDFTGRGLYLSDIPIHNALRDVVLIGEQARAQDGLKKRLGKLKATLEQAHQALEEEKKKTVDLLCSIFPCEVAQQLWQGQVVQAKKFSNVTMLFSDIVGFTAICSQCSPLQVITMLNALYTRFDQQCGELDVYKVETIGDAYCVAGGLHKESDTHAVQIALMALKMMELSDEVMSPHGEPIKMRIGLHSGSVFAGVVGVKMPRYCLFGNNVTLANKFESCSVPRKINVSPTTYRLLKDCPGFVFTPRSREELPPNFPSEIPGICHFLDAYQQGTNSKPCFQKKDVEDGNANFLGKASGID
Human soluble guanylate cyclase enzyme (hsGC), sequence (Q02153 whole entry): as the sequence (Q02153 whole entry) above
Human soluble guanylate cyclase enzyme (hsGC), sequence (Q02108 whole entry): as the sequence (Q02108 whole entry) above

Row | Compound | Emax at 10 µM [1, 4] | Emax at 30 µM [1, 5] | sGC Enzyme (specific activity at 10 μM) [3] | sGC Enzyme (fold increase at 10 μM without SNP) [3] | sGC Enzyme (specific activity at 30 μM) [3] | sGC Enzyme (fold increase at 30 μM without SNP) [3] | other results
1 | Cc1cc(-c2cc(-c3ncccn3)nn2Cc2ccccc2F)c(C)s1 [Compound I-14] |  |  | C (C = 100 to <200) | A (A = no increase to <2 fold increase) | C (C = 100 to <200) | A (A = no increase to <2 fold increase) | Emax at 10 µM [1, 6]: 0 to 10%; Emax at 30 µM [1, 7]: 0 to 10%
2 | N#Cc1ccc(-c2cc(-c3ccccn3)nn2Cc2ccccc2F)cc1 [Compound I-17] |  |  | B (B = 50 to <100) | A (A = no increase to <2 fold increase) | B (B = 50 to <100) | A (A = no increase to <2 fold increase) | 
3 | Fc1ccccc1Cn1nc(-c2ccccn2)cc1-c1ncccn1 [Compound I-80] | 0 to 10% | 0 to 10% |  |  |  |  | sGC Enzyme (fold increase at 10 μM) [3]: A (A = no increase to <2 fold increase); sGC Enzyme (fold increase at 30 μM) [3]: A (A = no increase to <2 fold increase)
4 | COc1ccc(-c2cc(-c3ncccn3)nn2Cc2ccccc2F)cn1 [Compound I-77, 2-(1-(2-fluorobenzyl)-5-(6-methoxypyridin-3-yl)-1H-pyrazol-3-yl)pyrimidine] |  |  |  |  |  |  | sGC Enzyme (fold increase at 10 μM) [3]: A (A = no increase to <2 fold increase); sGC Enzyme (fold increase at 30 μM) [3]: A (A = no increase to <2 fold increase)
5 | Nc1nc(-c2cc(-c3ccon3)n(Cc3ccccc3F)n2)ncc1NC(=O)c1nccs1 [Compound I-189] |  |  |  |  |  |  | EC50 ([1]; in the presence of 10 uM SNP): < 20 µM; Emax ([1]; read-out: HEK WC Assay (% Emax at 1 μM with 10 uM SNP)): 60 to 80%; Emax ([1]; read-out: HEK WC Assay (% Emax at 10 μM with 10 uM SNP)): 60 to 80%; Emax ([1]; read-out: HEK WC Assay (% Emax at 30 μM with 10 uM SNP)): 60 to 80%; inhibition at 1 µM ([2]; Table 10B): 80 to 100%; inhibition at 3 µM ([2]; Table 10B): 80 to 100%; EC50 ([2]; Table 10B): < 2 µM
6 | CCOC(=O)c1cnc(-c2cc(-c3ccon3)n(Cc3ccccc3F)n2)nc1Cl [Compound I-140] | 60 to 80% | 40 to 60% |  |  |  |  | inhibition at 1 µM ([2]; Table 10A): 20 to 40%; inhibition at 3 µM ([2]; Table 10A): 60 to 80%; inhibition at 10 µM ([2]; 10 μM, Table 10A, read-out: Percent Relaxation at 10 μM): 80 to 100%; EC50 ([2]; Table 10A): < 2 µM

Second part, led by results:

Row | Emax at 10 µM [1, 4] | Emax at 30 µM [1, 5] | sGC Enzyme (specific activity at 10 μM) [3] | sGC Enzyme (fold increase at 10 μM without SNP) [3] | sGC Enzyme (specific activity at 30 μM) [3] | sGC Enzyme (fold increase at 30 μM without SNP) [3] | Compound | other results
7 | 40 to 60% | 40 to 60% |  |  |  |  | CCOC(=O)c1cnc(-c2cc(-c3ccon3)n(Cc3ccccc3F)n2)nc1O [Compound I-138] | inhibition at 1 µM ([2]; Table 10A): 20 to 40%; inhibition at 3 µM ([2]; Table 10A): 40 to 60%; EC50 ([2]; Table 10A): 2 to 4 µM
8 |  |  | B (B = 50 to <100) | A (A = no increase to <2 fold increase) | B (B = 50 to <100) | A (A = no increase to <2 fold increase) | N#Cc1cccc(-c2cc(-c3ccccn3)nn2Cc2ccccc2F)c1 [Compound I-16] | 
9 |  |  | C (C = 100 to <200) | A (A = no increase to <2 fold increase) | C (C = 100 to <200) | A (A = no increase to <2 fold increase) | Fc1ccc(-c2cc(-c3ccccn3)nn2Cc2ccccc2F)cc1 [Compound I-12] | Emax at 10 µM [1, 6]: 0 to 10%; Emax at 30 µM [1, 7]: 0 to 10%
